Consider 21 compounds from patent EP4631940A1, “COMPOUND TARGETING PAN-KRAS PROTEIN DEGRADATION AGENT AND USE THEREOF” (Betta Pharmaceuticals Co., Ltd., priority 2022, dated 2024).

One assay relates to AGS. In words: Cell proliferation experiment (CellTiter-Glo). To be noted: AGS, KRAS mutation type G12D; 96 h incubation; read-out: IC50(nM) AGS. The format is cell-based. (In general: In ATP-based viability assays light output follows the ATP content of the culture.)
In general, IC50 refers to the concentration at which inhibition is half-maximal. For “(2S,4R)-1-((S)-2-(4-(5-(7-((7-(8-ethyl-7-fluoro-3-hydroxynaphthalen-1-yl)-8-fluoro-4-((R)-3-hy droxy-3-methylpiperidin-1-yl)pyrido[4,3-d]pyrimidin-2-yl)oxy)methyl)cyclopropyl)methyl)-2,7-azaspiro[3.5]nonan-2-yl)pyrazin-2-yl)-1H-1,2,3-triazol-1-yl)-3-methylbutanoyl)-4-hydroxy-N-(( S)-1-(4-methylthiazol-5-yl)phenyl)ethyl)pyrrolidine-2-carboxamide [Compound 168]”, the IC50 turned out to be 5.6 nM. `CCc1c(F)ccc2cc(O)cc(-c3ccc4c(N5CCC[C@@](C)(O)C5)nc(OCC5(CN6CCC7(CC6)CN(c6cnc(-c8cn([C@H](C(=O)N9C[C@H](O)C[C@H]9C(=O)N[C@@H](C)c9ccc(-c%10scnc%10C)cc9)C(C)C)nn8)cn6)C7)CC5)nc4c3F)c12` [Compound 186]: the half-maximal inhibitory concentration (IC50) was 20 nM. Take `CCc1c(F)ccc2cc(O)cc(-c3ncc4c(N5CCC[C@@](C)(O)C5)nc(OCC5(CN6CCC(Oc7ccc(-c8cn([C@H](C(=O)N9C[C@H](O)C[C@H]9C(=O)N[C@@H](C)c9ccc(-c%10scnc%10C)cc9)C(C)C)nn8)nn7)CC6)CC5)nc4c3F)c12` [Compound 167]: the IC50 came to 8.8 nM. On to `CCc1c(F)ccc2cc(O)cc(-c3ncc4c(N5CCC[C@@](C)(O)C5)nc(OCC5(CN6CCN(C7CCN(c8cc([C@H](C(=O)N9C[C@H](O)C[C@H]9C(=O)N[C@H](C)c9ccc(-c%10scnc%10C)cc9)C(C)C)on8)CC7)CC6)CC5)nc4c3F)c12` [Compound 164], for which the IC50 worked out at 38 nM. Consider “(2S,4R)-1-((S)-2-(4-(1-((1-((1-(((7-(8-ethyl-7-fluoro-3-hydroxynaphthalen-1-yl)-8-fluoro-4-((R)-3-hydroxy-3-methylpiperidin-1-yl)pyrido[4,3-d]pyrimidin-2-yl)oxy)methyl)piperidin-4-yl)methy l)azetidin-3-yl)-1H-1,2,3-triazol-1-yl)-3-methylbutanoyl)-4-hydroxy-N-((S)-1-(4-(4-methylthiaz ol-5-yl)phenyl)ethyl)pyrrolidine-2-carboxamide [Compound 129]”, for which the half-maximal inhibitory concentration (IC50) was 37 nM. As for “(2S,4R)-1-((S)-2-(4-(5-((((3R,7aR)-7a-(((7-(8-ethyl-7-fluoro-3-hydroxynaphthalen-1-yl)-8-fluor o-4-((R)-3-hydroxy-3-methylpiperidin-l-yl)pyrido[4,3-d]pyrimidin-2-yl)oxy)methyl)hexahydro-1H-pyrrolizin-3-yl)methoxy)pyrazin-2-yl)-1H-1,2,3-triazol-1-yl)-3-methylbutanoyl)-4-hydroxy-N-((S)-1-(4-(4-methylthiazol-5-yl)phenyl)ethyl)pyrrolidine-2-carboxamide [Compound 188]”, the IC50 was determined as 12 nM. As to `CCc1c(F)ccc2cc(O)cc(-c3ncc4c(N5CCC[C@@](C)(O)C5)nc(OCC5(CN6CCC(Oc7ncc(-c8cn([C@H](C(=O)N9C[C@H](O)C[C@H]9C(=O)N[C@@H](C)c9ccc(-c%10scnc%10C)cc9)C(C)C)nn8)s7)CC6)CC5)nc4c3F)c12` [Compound 181], the IC50 stood at 11 nM. Still for that read-out and setting: then “(3S,7aS)-7a-((7-(7-(8-ethyl-7-fluoro-3-hydroxynaphthalen-1-yl)-8-fluoro-4-((R)-3-hydroxy-3-m ethylpiperidin-1-yl)pyrido[4,3-d]pyrimidin-2-yl)pyrimidin-2-yl)oxy)methyl)-6-methylenehexahy dro-1H-pyrrolizin-3-yl)methyl-4-(((5-(R)-1-(2S,4R)-4-hydroxy-2-(((S)-1-(4-(4-methylthiazol-5-yl)phenyl)ethyl)carbamoyl)pyrrolidin-1-yl)-3-methyl-1-oxobutan-2-yl)isoxazol-3-yl)oxy)methyl )piperidine-1-carboxylate [Compound 125]”, with 52 nM; and “(2S,4R)-1-((S)-2-(4-(5-(1-((1-((7-(8-ethyl-7-fluoro-3-hydroxynaphthalen-1-yl)-8-fluoro-4-((R)-3 -hydroxy-3-methylpiperidin-1-yl)pyrido[4,3-d]pyrimidin-2-yl)oxy)methyl)cyclopropyl)methyl)p iperidin-4-yl)oxy)pyrimidin-2-yl)-1H-1,2,3-triazol-1-yl)-3-methylbutanoyl)-4-hydroxy-N-((S)-1-(4-hydroxyl-N-(4-(4-methylthiazol-5-yl)phenyl)ethyl)pyrrolidine-2-carboxamide [Compound 169]”, with 20 nM; and `CCc1c(F)ccc2cc(O)cc(-c3ncc4c(N5CCC[C@@](C)(O)C5)nc(OCC5(CN6CCN(Cc7cnc(-c8cn([C@H](C(=O)N9C[C@H](O)C[C@H]9C(=O)N[C@@H](C)c9ccc(-c%10scnc%10C)cc9)C(C)C)nn8)s7)CC6)CC5)nc4c3F)c12` [Compound 187], with 7.5 nM. Turning to “(2S,4R)-1-((S)-2-(4-(3-((1-((1-((7-(8-ethyl-7-fluoro-3-hydroxynaphthalen-1-yl)-8-fluoro-4-((R)-3-hydroxy-3-methylpiperidin-1-yl)pyrido[4,3-d]pyrimidin-2-yl)oxy)methyl)cyclopropyl)methyl) piperidin-4-yl)methyl)amino)bicyclo[1.1.1]pent-1-yl)-1H-1,3-triazol-1-yl)-3-methylbutanoyl)-4-hydroxy-N-((S)-1-(4-(4-methylthiazol-5-yl)phenyl)ethyl)pyrrolidine-2-carboxamide [Compound 180]”, the IC50 turned out to be 20 nM. As for `CCc1c(F)ccc2cc(O)cc(-c3ncc4c(N5CCC[C@@](C)(O)C5)nc(OCC5(CN6CCC(Oc7ccc(-c8cn([C@H](C(=O)N9C[C@H](O)C[C@H]9C(=O)N[C@@H](CO)c9ccc(-c%10scnc%10C)cc9)C(C)C)nn8)cn7)CC6)CC5)nc4c3F)c12` [Compound 171], the IC50 came to 13 nM.

Still in this assay, the particulars now being: Homo sapiens, AGS, 96 h, read-out: IC50(nM) AGS.
With `CCc1c(F)ccc2cc(O)cc(-c3ncc4c(N5CCC[C@@](C)(O)C5)nc(OCC5(CN6CCN(C7CC(c8cn([C@H](C(=O)N9C[C@H](O)C[C@H]9C(=O)N[C@@H](C)c9ccc(-c%10scnc%10C)cc9)C(C)C)nn8)C7)CC6)CC5)nc4c3F)c12` (stereo partly drawn) [Compound 165, (2S,4R)-1-((S)-2-(4-(3-(4-((1-(((7-(8-ethyl-7-fluoro-3-hydroxynaphthalen-1-yl)-8-fluoro-4-((R)-3-hydroxy-3-methylpiperidin-1-yl)pyrido[4,3-d]pyrimidin-2-yl)oxy)methyl)cyclopropyl)methyl)piperazin-1-yl)cyclobutyl)-1H-1,2,3-triazol-1-yl)-3-methylbutanoyl)-4-hydroxy-N-((S)-1-(4-(4-methylthiazol-5-yl)phenyl)ethyl)pyrrolidine-2-carboxamide], the IC50 was 9.2 nM.

Staying with this assay, now noted: read-out: IC50(nM) AGS.
Consider `CCc1c(F)ccc2cc(O)cc(-c3ncc4c(N5CCC[C@@](C)(O)C5)nc(OCC5(CN6CCC(c7cc([C@H](C(=O)N8C[C@H](O)C[C@H]8C(=O)N[C@@H](C)c8ccc(-c9scnc9C)cc8)C(C)C)on7)CC6)CC5)nc4c3F)c12` [Compound 147], for which the IC50 stood at 16 nM.

“(2S,4R)-1-((S)-2-(4-(1-((1-((1-(((7-(8-ethyl-7-fluoro-3-hydroxynaphthalen-1-yl)-8-fluoro-4-((R)-3-hydroxy-3-methylpiperidin-1-yl)pyrido[4,3-d]pyrimidin-2-yl)oxy)methyl)cyclopropyl)methyl) piperidin-4-yl)methyl)-1H-pyrazol-4-yl)-1H-1,2,3-triazol-1-yl)-3-methylbutanoyl)-4-hydroxy-N-((S)-1-(4-(4-methylthiazol-5-yl)phenyl)ethyl)pyrrolidine-2-carboxamide [Compound 182]”: the IC50 is 24 nM. Still for that read-out and setting: in the case of `CCc1c(F)ccc2cc(O)cc(-c3ncc4c(N5CCC[C@@](C)(O)C5)nc(OCC5(CN6CCC(Oc7cnc(-c8cn([C@H](C(=O)N9C[C@H](O)C[C@H]9C(=O)N[C@@H](CO)c9ccc(-c%10ccnn%10CC)cc9)C(C)C)nn8)cn7)CC6)CC5)nc4c3F)c12` [Compound 172] it was 3.6 nM; in that of “(2S,4R)-1-((S)-2-(4-(6-((4-((1-(((7-(8-ethyl-7-fluoro-3-hydroxynaphthalen-1-yl)-8-fluoro-4-((R)-3-hydroxy-3-methylpiperidin-1-yl)pyrido[4,3-d]pyrimidin-2-yl)oxy)methyl)cyclopropyl)methyl) pyridin-1-yl)methyl)pyridin-3-yl)-1H-1,2,3-triazol-1-yl)-3-methylbutanoyl)-4-hydroxy-N-((S)-1-(4-(4-methylthiazol-5-yl)phenyl)ethyl)pyrrolidine-2-carboxamide [Compound 179]”, 27 nM. Turning to “(2S,4R)-1-((S)-2-(4-(5-((4-((1-(((7-(8-ethyl-7-fluoro-3-hydroxynaphthalen-1-yl)-8-fluoro-4-((R)-3-hydroxy-3-methylpiperidin-1-yl)pyrido[4,3-d]pyrimidin-2-yl)oxy)methyl)cyclopropyl)methyl) piperazin-1-yl)methyl)piperazin-3-yl)-1H-1,2,3-triazol-1-yl)-3-methylbutanoyl)-4-hydroxy-N-((S )-1-(4-(4-methylthiazol-5-yl)phenyl)ethyl)pyrrolidine-2-carboxamide [Compound 177]”, the IC50 amounted to 4.2 nM. In the case of `C=C1CN2[C@H](COC(=O)N3CCN(c4cc([C@H](C(=O)N5C[C@H](O)C[C@H]5C(=O)N[C@@H](C)c5ccc(-c6scnc6C)cc5)C(C)C)on4)CC3)CC[C@@]2(COc2nc(N3CCC[C@@](C)(O)C3)c3cnc(-c4cc(O)cc5ccc(F)c(CC)c45)c(F)c3n2)C1` [Compound 110], the IC50 was determined as 52 nM. Same read-out and setting: in the case of “(2S,4R)-1-((S)-2-(4-(6-((1-((1-(((7-(8-ethyl-7-fluoro-3-hydroxynaphthalen-1-yl)-8-fluoro-4-((R)-3-hydroxy-3-methylpiperidin-1-yl)pyrido[4,3-d]pyrimidin-2-yl)oxy)methyl)cyclopropyl)methyl) -4-methylpiperidin-4-yl)oxy)piperidin-3-yl)-1H-1,2,3-triazol-1-yl)-3-methylbutanoyl)-4-hydroxy -N-((S)-1-(4-(4-methylthiazol-5-yl)phenyl)ethyl)pyrrolidine-2-carboxamide [Compound 176]” it was 33 nM; in that of `C#Cc1c(F)ccc2cc(O)cc(-c3ncc4c(N5CCCOCC5)nc(OC[C@]56CCCN5[C@@H](COC(=O)N5CCC7(CC5)CC(C(=O)N[C@H](C(=O)N5C[C@H](O)C[C@H]5C(=O)N[C@@H](C)c5ccc(-c8scnc8C)cc5)C(C)(C)C)C7)CC6)nc4c3F)c12` [Compound 90], 83 nM.

The target of the next assay is KRAS G12D (Homo sapiens, UniProt P01116, G12D).
Chain of KRAS G12D (P01116 1-188 isoform P01116-2 G12D): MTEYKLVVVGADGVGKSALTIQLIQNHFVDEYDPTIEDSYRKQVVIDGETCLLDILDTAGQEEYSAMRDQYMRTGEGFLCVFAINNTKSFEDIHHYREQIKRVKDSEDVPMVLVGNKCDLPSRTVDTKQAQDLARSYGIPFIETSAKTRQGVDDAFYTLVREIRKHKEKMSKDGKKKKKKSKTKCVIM
Assay: not given
Conditions: not given
As to `CCc1c(F)ccc2cc(O)cc(-c3ncc4c(N5CCC[C@@](C)(O)C5)nc(OCC5(CN6CCC(c7cc([C@H](C(=O)N8C[C@H](O)C[C@H]8C(=O)N[C@@H](C)c8ccc(-c9scnc9C)cc8)C(C)C)on7)CC6)CC5)nc4c3F)c12` [Compound 147], the DC50 came to 24 nM and the “Dmax (%)” value turned out to be 95%.
